Experimental data from ChEMBL document CHEMBL4371002 (J Med Chem, 2018).
In brackets after ≈: the same amount, converted by molar mass. Peptide text beside a SMILES is read from it. * marks the point of attachment. X1 = CC(C)[C@H](/C=C(\Cl)[C@H](C)N)C(=O)*; X3 = CC(C)[C@H](/C=C(\F)[C@H](C)N)C(=O)*; X4 = C[C@H](/C=C(\Cl)[C@H](C)N)C(=O)*

The molecules below were run against T1, Parathyroid hormone/parathyroid hormone-related peptide receptor (Homo sapiens, UniProt Q03431) (assay: not given). Conditions: not given.
T1 sequence (Q03431 whole entry): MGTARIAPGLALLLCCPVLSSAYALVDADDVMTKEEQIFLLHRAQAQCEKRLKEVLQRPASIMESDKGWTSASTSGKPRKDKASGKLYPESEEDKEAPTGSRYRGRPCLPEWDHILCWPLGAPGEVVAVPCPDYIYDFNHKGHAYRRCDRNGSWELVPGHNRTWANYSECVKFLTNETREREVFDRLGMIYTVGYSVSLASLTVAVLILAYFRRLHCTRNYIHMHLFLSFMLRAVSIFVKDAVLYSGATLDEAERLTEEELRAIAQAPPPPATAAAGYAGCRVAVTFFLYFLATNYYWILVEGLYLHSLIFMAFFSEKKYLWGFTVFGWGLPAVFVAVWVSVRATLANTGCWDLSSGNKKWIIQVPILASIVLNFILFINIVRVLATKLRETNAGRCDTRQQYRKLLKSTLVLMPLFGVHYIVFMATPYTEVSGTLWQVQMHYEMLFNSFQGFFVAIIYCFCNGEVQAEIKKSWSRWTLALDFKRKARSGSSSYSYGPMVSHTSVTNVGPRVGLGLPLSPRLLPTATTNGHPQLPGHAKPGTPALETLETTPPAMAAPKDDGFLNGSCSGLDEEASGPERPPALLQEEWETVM

`CC[C@H](C)[C@H](NC(=O)[C@H](CCC(=O)O)NC(=O)[C@H](CO)NC(=O)[C@H](C)/C=C(\Cl)[C@H](C)N)C(=O)N[C@@H](CCC(N)=O)C(=O)N[C@@H](CC(C)C)C(=O)N[C@@H](CCSC)C(=O)N[C@@H](Cc1c[nH]cn1)C(=O)N[C@@H](CC(N)=O)C(=O)N[C@@H](CC(C)C)C(=O)NCC(=O)N[C@@H](CCCCN)C(=O)N[C@@H](Cc1c[nH]cn1)C(=O)N[C@@H](CC(C)C)C(=O)N[C@@H](CC(N)=O)C(=O)N[C@@H](CO)C(=O)N[C@@H](CCSC)C(=O)N[C@@H](CCC(=O)O)C(=O)N[C@@H](CCCN=C(N)N)C(=O)N[C@H](C(=O)N[C@@H](CCC(=O)O)C(=O)N[C@@H](Cc1c[nH]c2ccccc12)C(=O)N[C@@H](CC(C)C)C(=O)N[C@@H](CCCN=C(N)N)C(=O)N[C@@H](CCCCN)C(=O)N[C@@H](CCCCN)C(=O)N[C@@H](CC(C)C)C(=O)N[C@@H](CCC(N)=O)C(=O)N[C@@H](CC(=O)O)C(=O)N[C@H](C(=O)N[C@@H](Cc1c[nH]cn1)C(=O)N[C@@H](CC(N)=O)C(=O)N[C@@H](Cc1ccccc1)C(=O)N[C@H](C(=O)N[C@@H](C)C(N)=O)C(C)C)C(C)C)C(C)C` (X4-SEIQLMHNLGKHLNSMERVEWLRKKLQDVHNFVA-NH2) and `CC[C@H](C)[C@H](NC(=O)[C@H](CCC(=O)O)NC(=O)[C@H](CO)NC(=O)[C@@H](/C=C(\Cl)[C@H](C)N)C(C)C)C(=O)N[C@@H](CCC(N)=O)C(=O)N[C@@H](CC(C)C)C(=O)N[C@@H](CCSC)C(=O)N[C@@H](Cc1c[nH]cn1)C(=O)N[C@@H](CC(N)=O)C(=O)N[C@@H](CC(C)C)C(=O)NCC(=O)N[C@@H](CCCCN)C(=O)N[C@@H](Cc1c[nH]cn1)C(=O)N[C@@H](CC(C)C)C(=O)N[C@@H](CC(N)=O)C(=O)N[C@@H](CO)C(=O)N[C@@H](CCSC)C(=O)N[C@@H](CCC(=O)O)C(=O)N[C@@H](CCCN=C(N)N)C(=O)N[C@H](C(=O)N[C@@H](CCC(=O)O)C(=O)N[C@@H](Cc1c[nH]c2ccccc12)C(=O)N[C@@H](CC(C)C)C(=O)N[C@@H](CCCN=C(N)N)C(=O)N[C@@H](CCCCN)C(=O)N[C@@H](CCCCN)C(=O)N[C@@H](CC(C)C)C(=O)N[C@@H](CCC(N)=O)C(=O)N[C@@H](CC(=O)O)C(=O)N[C@H](C(=O)N[C@@H](Cc1c[nH]cn1)C(=O)N[C@@H](CC(N)=O)C(=O)N[C@@H](Cc1ccccc1)C(=O)N[C@H](C(=O)N[C@@H](C)C(N)=O)C(C)C)C(C)C)C(C)C` (X1-SEIQLMHNLGKHLNSMERVEWLRKKLQDVHNFVA-NH2) are within 1.5-fold of each other in EC50: 5.5 nM for the first, 7.9 nM for the second.

In the case of `CC[C@H](C)[C@H](NC(=O)[C@H](CCC(=O)O)NC(=O)[C@H](CO)NC(=O)[C@@H](/C=C(\F)[C@H](C)N)C(C)C)C(=O)N[C@@H](CCC(N)=O)C(=O)N[C@@H](CC(C)C)C(=O)N[C@@H](CCSC)C(=O)N[C@@H](Cc1c[nH]cn1)C(=O)N[C@@H](CC(N)=O)C(=O)N[C@@H](CC(C)C)C(=O)NCC(=O)N[C@@H](CCCCN)C(=O)N[C@@H](Cc1c[nH]cn1)C(=O)N[C@@H](CC(C)C)C(=O)N[C@@H](CC(N)=O)C(=O)N[C@@H](CO)C(=O)N[C@@H](CCSC)C(=O)N[C@@H](CCC(=O)O)C(=O)N[C@@H](CCCN=C(N)N)C(=O)N[C@H](C(=O)N[C@@H](CCC(=O)O)C(=O)N[C@@H](Cc1c[nH]c2ccccc12)C(=O)N[C@@H](CC(C)C)C(=O)N[C@@H](CCCN=C(N)N)C(=O)N[C@@H](CCCCN)C(=O)N[C@@H](CCCCN)C(=O)N[C@@H](CC(C)C)C(=O)N[C@@H](CCC(N)=O)C(=O)N[C@@H](CC(=O)O)C(=O)N[C@H](C(=O)N[C@@H](Cc1c[nH]cn1)C(=O)N[C@@H](CC(N)=O)C(=O)N[C@@H](Cc1ccccc1)C(=O)N[C@H](C(=O)N[C@@H](C)C(N)=O)C(C)C)C(C)C)C(C)C` (X3-SEIQLMHNLGKHLNSMERVEWLRKKLQDVHNFVA-NH2), the EC50 is reported as 4.4 nM.

What follows are molecules tested on Staphylococcus hominis (assay: microbe, parasite or virus in culture). Conditions: IP8203.
Format: functional

Going from `CC1=C\[C@@H](O)C[C@H](F)Cc2nc(co2)C(=O)N2CCC[C@@H]2C(=O)O[C@H](C(C)C)[C@H](C)/C=C/C(=O)NC\C=C\1` to `CC1=C\[C@@H](O)C[C@@H](F)Cc2nc(co2)C(=O)N2CCC[C@@H]2C(=O)O[C@H](C(C)C)[C@H](C)/C=C/C(=O)NC\C=C\1`, the MIC falls from 8 µg/mL (≈ 15 µM) to 0.25 µg/mL (≈ 0.47 µM) (32-fold).

First: CC1=C\[C@@H](O)C[C@@H](O)Cc2nc(co2)C(=O)N2CCC[C@@H]2C(=O)O[C@H](C(C)C)[C@H](C)/C=C/C(=O)NC\C=C\1
Second: CC1=C\[C@@H](O)C[C@H](O)Cc2nc(co2)C(=O)N2CCC[C@@H]2C(=O)O[C@H](C(C)C)[C@H](C)/C=C/C(=O)NC\C=C\1
The MIC of the first is 32-fold lower: 1 µg/mL (≈ 1.89 µM) for the first, 32 µg/mL (≈ 60.4 µM) for the second.

Molecule `CC1=C\[C@@H](O)CC(=O)Cc2nc(co2)C(=O)N2CCC[C@@H]2C(=O)O[C@H](C(C)C)[C@H](C)/C=C/C(=O)NC\C=C\1` [VOLPRISTIN] has an MIC of 4 µg/mL (≈ 7.58 µM).

What follows are molecules tested against Prothrombin (Homo sapiens, UniProt P00734) (assay: not given). Conditions: not given.

`N=C(N)c1ccc([C@H]2[C@H]3C(=O)N(Cc4ccc(F)cc4F)C(=O)[C@H]3[C@@H]3CCCN32)cc1` and `N=C(N)c1ccc([C@H]2[C@H]3C(=O)N(Cc4cccc(F)c4)C(=O)[C@H]3[C@@H]3CCCN32)cc1` are within 1.5-fold of each other in Ki: 260 nM for the first, 360 nM for the second.

These molecules were tested against Bacterial 70S ribosome (assay: not given). Conditions: not given.
Format: subcellular, Bacteria

Compared with `CC1=C\[C@@H](O)C[C@H](F)Cc2nc(co2)C(=O)N2CCC[C@@H]2C(=O)O[C@H](C(C)C)[C@H](C)/C=C/C(=O)NC\C=C\1`, `CC1=C\[C@@H](O)C[C@@H](F)Cc2nc(co2)C(=O)N2CCC[C@@H]2C(=O)O[C@H](C(C)C)[C@H](C)/C=C/C(=O)NC\C=C\1` is 8.3-fold lower in IC50: 500 nM for the first, 60 nM for the second.

Going from `CC1=C\[C@@H](O)C[C@@H](O)Cc2nc(co2)C(=O)N2CCC[C@@H]2C(=O)O[C@H](C(C)C)[C@H](C)/C=C/C(=O)NC\C=C\1` to `CC1=C\[C@@H](O)C[C@H](O)Cc2nc(co2)C(=O)N2CCC[C@@H]2C(=O)O[C@H](C(C)C)[C@H](C)/C=C/C(=O)NC\C=C\1`, the IC50 rises from 50 nM to 6000 nM (120-fold).

Work on `CC1=C\[C@@H](O)CC(=O)Cc2nc(co2)C(=O)N2CCC[C@@H]2C(=O)O[C@H](C(C)C)[C@H](C)/C=C/C(=O)NC\C=C\1` [VOLPRISTIN] yielded an IC50 of 100 nM.

The molecules below were run against T1, Parathyroid hormone/parathyroid hormone-related peptide receptor (assay: biochemical). Conditions: not given.

`CC[C@H](C)[C@H](NC(=O)[C@H](CCC(=O)O)NC(=O)[C@H](CO)NC(=O)[C@H](C)/C=C(\Cl)[C@H](C)N)C(=O)N[C@@H](CCC(N)=O)C(=O)N[C@@H](CC(C)C)C(=O)N[C@@H](CCSC)C(=O)N[C@@H](Cc1c[nH]cn1)C(=O)N[C@@H](CC(N)=O)C(=O)N[C@@H](CC(C)C)C(=O)NCC(=O)N[C@@H](CCCCN)C(=O)N[C@@H](Cc1c[nH]cn1)C(=O)N[C@@H](CC(C)C)C(=O)N[C@@H](CC(N)=O)C(=O)N[C@@H](CO)C(=O)N[C@@H](CCSC)C(=O)N[C@@H](CCC(=O)O)C(=O)N[C@@H](CCCN=C(N)N)C(=O)N[C@H](C(=O)N[C@@H](CCC(=O)O)C(=O)N[C@@H](Cc1c[nH]c2ccccc12)C(=O)N[C@@H](CC(C)C)C(=O)N[C@@H](CCCN=C(N)N)C(=O)N[C@@H](CCCCN)C(=O)N[C@@H](CCCCN)C(=O)N[C@@H](CC(C)C)C(=O)N[C@@H](CCC(N)=O)C(=O)N[C@@H](CC(=O)O)C(=O)N[C@H](C(=O)N[C@@H](Cc1c[nH]cn1)C(=O)N[C@@H](CC(N)=O)C(=O)N[C@@H](Cc1ccccc1)C(=O)N[C@H](C(=O)N[C@@H](C)C(N)=O)C(C)C)C(C)C)C(C)C` (X4-SEIQLMHNLGKHLNSMERVEWLRKKLQDVHNFVA-NH2) and `CC[C@H](C)[C@H](NC(=O)[C@H](CCC(=O)O)NC(=O)[C@H](CO)NC(=O)[C@@H](/C=C(\Cl)[C@H](C)N)C(C)C)C(=O)N[C@@H](CCC(N)=O)C(=O)N[C@@H](CC(C)C)C(=O)N[C@@H](CCSC)C(=O)N[C@@H](Cc1c[nH]cn1)C(=O)N[C@@H](CC(N)=O)C(=O)N[C@@H](CC(C)C)C(=O)NCC(=O)N[C@@H](CCCCN)C(=O)N[C@@H](Cc1c[nH]cn1)C(=O)N[C@@H](CC(C)C)C(=O)N[C@@H](CC(N)=O)C(=O)N[C@@H](CO)C(=O)N[C@@H](CCSC)C(=O)N[C@@H](CCC(=O)O)C(=O)N[C@@H](CCCN=C(N)N)C(=O)N[C@H](C(=O)N[C@@H](CCC(=O)O)C(=O)N[C@@H](Cc1c[nH]c2ccccc12)C(=O)N[C@@H](CC(C)C)C(=O)N[C@@H](CCCN=C(N)N)C(=O)N[C@@H](CCCCN)C(=O)N[C@@H](CCCCN)C(=O)N[C@@H](CC(C)C)C(=O)N[C@@H](CCC(N)=O)C(=O)N[C@@H](CC(=O)O)C(=O)N[C@H](C(=O)N[C@@H](Cc1c[nH]cn1)C(=O)N[C@@H](CC(N)=O)C(=O)N[C@@H](Cc1ccccc1)C(=O)N[C@H](C(=O)N[C@@H](C)C(N)=O)C(C)C)C(C)C)C(C)C` (X1-SEIQLMHNLGKHLNSMERVEWLRKKLQDVHNFVA-NH2) are the same in Kd: 1.26 nM for the first, 1.26 nM for the second.

With `CC[C@H](C)[C@H](NC(=O)[C@H](CCC(=O)O)NC(=O)[C@H](CO)NC(=O)[C@@H](/C=C(\F)[C@H](C)N)C(C)C)C(=O)N[C@@H](CCC(N)=O)C(=O)N[C@@H](CC(C)C)C(=O)N[C@@H](CCSC)C(=O)N[C@@H](Cc1c[nH]cn1)C(=O)N[C@@H](CC(N)=O)C(=O)N[C@@H](CC(C)C)C(=O)NCC(=O)N[C@@H](CCCCN)C(=O)N[C@@H](Cc1c[nH]cn1)C(=O)N[C@@H](CC(C)C)C(=O)N[C@@H](CC(N)=O)C(=O)N[C@@H](CO)C(=O)N[C@@H](CCSC)C(=O)N[C@@H](CCC(=O)O)C(=O)N[C@@H](CCCN=C(N)N)C(=O)N[C@H](C(=O)N[C@@H](CCC(=O)O)C(=O)N[C@@H](Cc1c[nH]c2ccccc12)C(=O)N[C@@H](CC(C)C)C(=O)N[C@@H](CCCN=C(N)N)C(=O)N[C@@H](CCCCN)C(=O)N[C@@H](CCCCN)C(=O)N[C@@H](CC(C)C)C(=O)N[C@@H](CCC(N)=O)C(=O)N[C@@H](CC(=O)O)C(=O)N[C@H](C(=O)N[C@@H](Cc1c[nH]cn1)C(=O)N[C@@H](CC(N)=O)C(=O)N[C@@H](Cc1ccccc1)C(=O)N[C@H](C(=O)N[C@@H](C)C(N)=O)C(C)C)C(C)C)C(C)C` (X3-SEIQLMHNLGKHLNSMERVEWLRKKLQDVHNFVA-NH2) the Kd was 1.26 nM.
